Measured values from the NIST ThermoML archive (doi:10.1021/je050358g).
± gives the expanded uncertainty stated by the source.

Details: Liquid, vibrating tube

CCCCCCCCCCCCCC[P+](CCCCCC)(CCCCCC)CCCCCC.O=S(=O)([N-]S(=O)(=O)C(F)(F)F)C(F)(F)F
mass density [kg/m3]
Details	298.15 K	303.25 K	308.15 K	318.27 K	323.33 K	328.39 K	333.43 K
210 kPa	1066.62 ± 2.8	1062.61 ± 2.8	1058.87 ± 2.8	1051.54 ± 2.8	1047.84 ± 2.8	1044.49 ± 2.8	1041.15 ± 2.7
540 kPa	1066.84 ± 2.8	1062.85 ± 2.8	1059.07 ± 2.8	1051.79 ± 2.8	1048.07 ± 2.8	1044.74 ± 2.8	1041.43 ± 2.7
1000 kPa	1067.13 ± 2.8	1063.14 ± 2.8	1059.37 ± 2.8	1052.1 ± 2.8	1048.38 ± 2.8	1045.08 ± 2.8	1041.76 ± 2.7
3000 kPa	1068.44 ± 2.8	1064.47 ± 2.8	1060.76 ± 2.8	1053.49 ± 2.8	1049.81 ± 2.8	1046.53 ± 2.8	1043.19 ± 2.8
5010 kPa	1069.7 ± 2.8	1065.77 ± 2.8	1062.11 ± 2.8	1054.88 ± 2.8	1051.24 ± 2.8	1047.96 ± 2.8	1044.61 ± 2.8
7500 kPa	1071.3 ± 2.8	1067.39 ± 2.8	1063.74 ± 2.8	1056.54 ± 2.8	1052.94 ± 2.8	1049.68 ± 2.8	1046.4 ± 2.8
9990 kPa	1072.85 ± 2.8	1068.97 ± 2.8	1065.36 ± 2.8	1058.2 ± 2.8	1054.64 ± 2.8	1051.4 ± 2.8	1048.13 ± 2.8
15010 kPa	1075.88 ± 2.8	1072.09 ± 2.8	1068.53 ± 2.8	1061.47 ± 2.8	1057.95 ± 2.8	1054.74 ± 2.8	1051.51 ± 2.8
19990 kPa	1078.82 ± 2.8	1075.07 ± 2.8	1071.57 ± 2.8	1064.6 ± 2.8	1061.14 ± 2.8	1057.9 ± 2.8	1054.8 ± 2.8
25010 kPa	1081.69 ± 2.9	1078 ± 2.8	1074.54 ± 2.8	1067.62 ± 2.8	1064.22 ± 2.8	1061.01 ± 2.8	1057.94 ± 2.8
29990 kPa	1084.45 ± 2.9	1080.84 ± 2.9	1077.42 ± 2.8	1070.51 ± 2.8	1067.21 ± 2.8	1064.03 ± 2.8	1060.97 ± 2.8
35010 kPa	1087.15 ± 2.9	1083.56 ± 2.9	1080.23 ± 2.9	1073.32 ± 2.8	1070.14 ± 2.8	1066.99 ± 2.8	1063.96 ± 2.8
40000 kPa	1089.79 ± 2.9	1086.26 ± 2.9	1082.95 ± 2.9	1076.09 ± 2.8	1072.99 ± 2.8	1069.88 ± 2.8	1066.84 ± 2.8
45010 kPa	1092.36 ± 2.9	1088.87 ± 2.9	1085.64 ± 2.9	1078.77 ± 2.8	1075.75 ± 2.8	1072.64 ± 2.8	1069.67 ± 2.8
50000 kPa	1094.88 ± 2.9	1091.44 ± 2.9	1088.25 ± 2.9	1081.37 ± 2.9	1078.47 ± 2.8	1075.39 ± 2.8	1072.43 ± 2.8
55010 kPa	1097.34 ± 2.9	1093.95 ± 2.9	1090.8 ± 2.9	1084 ± 2.9	1081.14 ± 2.9	1078.08 ± 2.8	1075.17 ± 2.8
59990 kPa	1099.74 ± 2.9	1096.39 ± 2.9	1093.3 ± 2.9	1086.5 ± 2.9	1083.74 ± 2.9	1080.67 ± 2.9	1077.73 ± 2.8
65010 kPa	1102.11 ± 2.9	1098.81 ± 2.9	1095.75 ± 2.9	1088.91 ± 2.9	1086.3 ± 2.9	1083.24 ± 2.9	1080.29 ± 2.9

CC(=O)[O-].CCCCCCCCCCCCCC[P+](CCCCCC)(CCCCCC)CCCCCC [trihexyl(tetradecyl)phosphonium acetate]
mass density [kg/m3]
Details	298.15 K	303.15 K	307.97 K	313.07 K	317.74 K	323.96 K	329.14 K	334.11 K
210 kPa	890.6 ± 2.3	887.54 ± 2.3	884.7 ± 2.3	881.57 ± 2.3	878.87 ± 2.3	875.25 ± 2.3	872.15 ± 2.3	869.21 ± 2.3
540 kPa	890.77 ± 2.4	887.71 ± 2.3	884.86 ± 2.3	881.77 ± 2.3	879.06 ± 2.3	875.43 ± 2.3	872.35 ± 2.3	869.41 ± 2.3
1000 kPa	891.01 ± 2.4	887.96 ± 2.3	885.13 ± 2.3	882.02 ± 2.3	879.32 ± 2.3	875.7 ± 2.3	872.61 ± 2.3	869.67 ± 2.3
3000 kPa	892.04 ± 2.4	889.03 ± 2.3	886.22 ± 2.3	883.14 ± 2.3	880.46 ± 2.3	876.87 ± 2.3	873.78 ± 2.3	870.81 ± 2.3
5010 kPa	893.09 ± 2.4	890.08 ± 2.3	887.29 ± 2.3	884.26 ± 2.3	881.6 ± 2.3	878 ± 2.3	874.92 ± 2.3	871.98 ± 2.3
7500 kPa	894.35 ± 2.4	891.38 ± 2.4	888.6 ± 2.3	885.61 ± 2.3	882.99 ± 2.3	879.4 ± 2.3	876.33 ± 2.3	873.42 ± 2.3
9990 kPa	895.56 ± 2.4	892.64 ± 2.4	889.9 ± 2.3	886.96 ± 2.3	884.32 ± 2.3	880.77 ± 2.3	877.71 ± 2.3	874.78 ± 2.3
15010 kPa	897.96 ± 2.4	895.15 ± 2.4	892.45 ± 2.4	889.57 ± 2.3	886.95 ± 2.3	883.42 ± 2.3	880.41 ± 2.3	877.5 ± 2.3
19990 kPa	900.29 ± 2.4	897.52 ± 2.4	894.88 ± 2.4	892.06 ± 2.4	889.47 ± 2.3	885.99 ± 2.3	883 ± 2.3	880.11 ± 2.3
25010 kPa	902.57 ± 2.4	899.86 ± 2.4	897.23 ± 2.4	894.49 ± 2.4	891.91 ± 2.4	888.48 ± 2.3	885.53 ± 2.3	882.67 ± 2.3
29990 kPa	904.74 ± 2.4	902.08 ± 2.4	899.51 ± 2.4	896.77 ± 2.4	894.26 ± 2.4	890.86 ± 2.4	887.95 ± 2.3	885.12 ± 2.3
35010 kPa	906.9 ± 2.4	904.28 ± 2.4	901.72 ± 2.4	899.05 ± 2.4	896.54 ± 2.4	893.19 ± 2.4	890.32 ± 2.4	887.57 ± 2.3
40020 kPa	908.99 ± 2.4	906.41 ± 2.4	903.88 ± 2.4	901.21 ± 2.4	898.76 ± 2.4	895.47 ± 2.4	892.64 ± 2.4	889.93 ± 2.4
45010 kPa	911.02 ± 2.4	908.45 ± 2.4	905.95 ± 2.4	903.32 ± 2.4	900.88 ± 2.4	897.65 ± 2.4	894.88 ± 2.4	892.22 ± 2.4
49990 kPa	912.98 ± 2.4	910.44 ± 2.4	907.95 ± 2.4	905.38 ± 2.4	902.96 ± 2.4	899.78 ± 2.4	897.06 ± 2.4	894.45 ± 2.4
55000 kPa	914.91 ± 2.4	912.4 ± 2.4	909.92 ± 2.4	907.36 ± 2.4	904.98 ± 2.4	901.85 ± 2.4	899.19 ± 2.4	896.66 ± 2.4
59990 kPa	916.81 ± 2.4	914.31 ± 2.4	911.84 ± 2.4	909.27 ± 2.4	906.93 ± 2.4	903.86 ± 2.4	901.27 ± 2.4	898.81 ± 2.4
65010 kPa	918.66 ± 2.4	916.16 ± 2.4	913.69 ± 2.4	911.16 ± 2.4	908.84 ± 2.4	905.84 ± 2.4	903.3 ± 2.4	900.91 ± 2.4
